One block for each compound: values may come before it.
Experiments:
[1] = cited from earlier work; for pl: Table 3
[2] = system: btrRCA5 to ATA5 capture oligonucleotide; assay: Accumulation and electronic hybridization in test buffers; settings: for hybridization efficiency: [(specific hybridization)/(transported)] × 100; for transported: fluorescent signal at completion of electronic targeting; for transported / specific hybridization: value +/− SEM, 50 mM buffer; for support of sequence specific electronic hybridization: in words
Experimental: Microelectronic Chips, Permeation Layer and Instrumentation—These have been described previously with the following exception. The permeation layer employed herein has an underlayer of agarose beneath the top streptavidin-containing agarose layer (approximately one micron in total thickness). To make the underlayer, […] glyoxal agarose (2%) was spun on at 2000 rpms for 20 sec prior to the application of the streptavidin-agarose layer. In brief, the 5580 series APEX chip used for these experiments consists of a 5×5 array of […] circular microelectrodes with […] microelectrodes at each corner of the array. Chips were mounted on a micromanipulator stage and the microelectrodes activated by a power supply and appropriately controlled relay switches. Fluorescently labeled oligonucleotides on the chip were visualized using oblique illumination with two 594 nm HeNe lasers and the images were quantified using either NIH Image or IPLab Spectrum software packages.
Accumulation and Hybridization—Two biotinylated capture oligonucleotides, ATA5 and ATA4 were electronically transported and localized at adjacent microelectrodes. The solution was removed and the chip washed 3-4× in test buffer. Buffers employed in these studies are listed in Table 3 and were utilized at the listed pH values and concentrations presented.
The L-isomers of amino acids were used, unless otherwise noted. The chip was equilibrated in test buffer for 5-10 min. Then fresh buffer containing 10 nM BODIPY-Texas Red labeled RCA5 (btrRCA5), an oligonucleotide complementary to ATA5 but not ATA4 (RS paper) was applied.
The […] microelectrodes were employed as cathodes and one microelectrode within the array used as the corresponding anode. Accumulation was assessed by sourcing a 500 nA constant current to individual microelectrodes for 30 sec and monitoring the accumulation of fluorescence at the positively-biased (anode) site in the microelectrode array. Signal arising from non-fluorescent sources (ie. thermal noise, etc.) was subtracted. Experiments examining the effect of different currents upon signal accumulation were conducted in a similar fashion except that the applied current varied from 100 nA to 1 mA. […] For the comparison between conductivities of various buffers, the data is presented as fold increase over initial fluorescence to account for chip-to-chip variation as well as laser illumination variations in signal levels. For other experiments, the data is presented as attomol product versus time, after converting^2 the observed fluorescence intensity to moles of labeled oligonucleotide.
Following accumulation at one microelectrode location, the buffer was removed and fresh buffer containing btrRCA5 applied. An adjacent microelectrode was then sourced in a similar fashion. Upon completion, the buffer was removed and the chip washed 5-7× with test buffer without btrRCA5. The pair of previously targeted microelectrodes were then illuminated and the fluorescence present at each site quantified. Control experiments utilized a bodipy-Texas Red labeled oligonucleotide complementary to ATA4 to verify the integrity and concentration of the ATA4 capture oligonucleotide. Percent hybridization efficiency was calculated as follows: (complementary oligonucleotide signal−noncomplementary signal)/(signal present immediately prior to the end of the applied current)×100.

[3] = Buffer conductivity and pH measurements; type: physicochemical; parameters: conductivity: unit not given here; settings: for conductivity: RT; for pH: in water at room temperature
Experimental: Buffer Conductivity and pH Measurements—The conductivities of test buffer solutions utilized for transport and hybridization were measured at RT using an Accumet 1.0 cm^−1 glass conductivity cell connected to an Accumet Model 50 pH/Ion/Conductivity meter (Fisher Scientific). Buffer pH values were obtained using an Accu-pHast variable temperature combination electrode and the same model meter.

[4] = Conductivity measurements of transport buffers; type: physicochemical; settings: for Average/Std. Deviation / Measurement 1 / Measurement 2 / Measurement 3: conductivity
[5] = system: btr-RCA5 fluorescent DNA probe; assay: Fluorescent DNA checkerboard addressing; settings: bias reversed every 6 seconds, 80 micron microlocations
[6] = Buffer capacity, pH and conductivity of buffers used on the APEX chip; settings: for PH: NaPO4: 20 mM adjusted to pH 7.4
[7] = system: target DNA to the specific capture DNA; assay: DNA hybridization sensitivity on the APEX chip; settings: normal DNA
DNA = DNA transport (accumulation) on the APEX chip; settings: in words, same field conditions
[8] = system: Reporter DNA to DNA1 or PNA1 capture; assay: Hybridization of phosphodiester-linked oligonucleotides versus PNA analogues; settings: 50 mM buffer
[9] = not told

- conductivity ([3]; 50 mM): 117 +/− 2.8
- pH ([3]; 50 mM): 7.59
Compound: Cn1cncc1C[C@H](N)C(=O)O [1(π)-methylhistidine]
- pl [1]: 7.54
- hybridization efficiency [2]: 21.3
- transported [2]: 141 +/− 20
- specific hybridization [2]: 30.0 +/− 5.0 attomol

- conductivity ([3]; 50 mM): 39.4 +/− 0.4
- pH ([3]; 50 mM): 7.44
Compound: Cn1cnc(C[C@H](N)C(=O)O)c1 [3(τ)-methylhistidine]
- pl [1]: 7.52
- hybridization efficiency [2]: 20.8
- transported [2]: 259 +/− 48
- specific hybridization [2]: 54.0 +/− 14.8 attomol

Compound: O=C([O-])CC(O)(CC(=O)[O-])C(=O)[O-].[Na+].[Na+].[Na+] [3.3 mM NaCitrate, sodium citrate]
- Average/Std. Deviation [4]: 986 +/− 38.1 μS/cm
- Measurement 1 [4]: 964 μS/cm
- Measurement 2 [4]: 1.03 mS/cm
- Measurement 3 [4]: 964 μS/cm
- checkerboard addressing and concentration of fluorescent DNA probe [5]: Rapid (6 second) checkerboard addressing and concentration of the btr-RCA5 fluorescent DNA probe was demonstrated

Compound: O=C([O-])CCC(=O)[O-].[Na+].[Na+] [5 mM NaSuccinate, sodium succinate]
- checkerboard addressing and concentration of fluorescent DNA probe [5]: Rapid (6 second) checkerboard addressing and concentration of the btr-RCA5 fluorescent DNA probe was demonstrated

- Average/Std. Deviation [4]: 147.6 +/− 9.07 μS/cm
- Measurement 1 [4]: 141 μS/cm
- Measurement 2 [4]: 144 μS/cm
- Measurement 3 [4]: 158 μS/cm
- Average/Std. Deviation ([4]; listed as 25 mM HEPES): 9.7 +/− 0.71 μS/cm
- Measurement 1 ([4]; listed as 25 mM HEPES): 9.16 μS/cm
- Measurement 2 ([4]; listed as 25 mM HEPES): 9.44 μS/cm
- Measurement 3 ([4]; listed as 25 mM HEPES): 10.5 μS/cm
Compound: O=S(=O)(O)CCN1CCN(CCO)CC1 [250 mM HEPES, HEPES]
- checkerboard addressing and concentration of fluorescent DNA probe [5]: Rapid (6 second) checkerboard addressing and concentration of the btr-RCA5 fluorescent DNA probe was demonstrated

Compound: N[C@@H](CS)C(=O)O [Cysteine]
- pK1 ([1]; Table 2): pK1 - 1.7
- pK2 ([1]; Table 2): pK2 - 8.3
- pK3 ([1]; Table 2): pK3 - 10.8
- pl [1]: 5.02
- pI [1]: 5.02
- conductivity [6]: 25.0 μS
- PH [6]: 5.2
- support of sequence specific electronic hybridization [2]: difficult to evaluate because of poor signal accumulation
- conductivity ([3]; 50 mM): 9.0 +/− 0.9
- pH ([3]; 50 mM): 5.08
- conductivity ([3]; 250 mM): 21.8 +/− 4.4
- conductivity [4]: ~23 μS/cm
- Average/Std. Deviation [4]: 22.7 +/− 5.09 μS/cm
- Measurement 1 [4]: 27.4 μS/cm
- Measurement 2 [4]: 17.3 μS/cm
- Measurement 3 [4]: 23.5 μS/cm
- Hybridization Sensitivity of DNA [7]: 7.5×10^10 targets
- transport (DNA): excellent transport

- conductivity ([3]; 50 mM): 57.1 +/− 0.3
- pH ([3]; 50 mM): 7.70
Compound: N[C@H](Cc1c[nH]cn1)C(=O)O [D-histidine]
- pl [1]: 7.47
- hybridization efficiency [2]: 24.3
- transported [2]: 490 +/− 50
- specific hybridization [2]: 119 +/− 11.8 attomol

- conductivity ([3]; 50 mM): 5.6 +/− 0.6
- pH ([3]; 50 mM): 6.76
Compound: NCCCC(=O)O [GABA, g-amino-butyric acid]
- pl [1]: 7.30
- support of sequence specific electronic hybridization [2]: neither GABA, b-alanine, nor glycine was capable of supporting sequence specific hybridization
- DNA:DNA hybridization ([8]; 200 nA): no hybridization was observed
- PNA:DNA hybridization ([8]; 200 nA): Hybridization in GABA was seen
- hybridization with either PNA:DNA or DNA:DNA duplexes ([8]; 500 nA): lack of hybridization

Compound: N[C@@H](Cc1c[nH]cn1)C(=O)O [L-histidine]
- pl [1]: 7.47
- non-specific signal as compared to the amount of material transported [2]: 2.2%
- hybridization efficiency [2]: 14.6
- transported [2]: 533 +/− 65
- specific hybridization [2]: 78.0 +/− 9.1 attomol
- conductivity ([3]; 50 mM): 60.1 +/− 0.1
- pH ([3]; 50 mM): 7.65

Compound: O=P(O)(O)O [NaPO4, Sodium Phosphate]
- conductivity [6]: 1,400.0 μS
- PH [6]: 7.4
- conductance [4]: ~2.9 mS/cm
- Average/Std. Deviation ([4]; listed as 1 mM NaPO4): 128.7 +/− 7.0 μS/cm
- Measurement 1 ([4]; listed as 1 mM NaPO4): 122 μS/cm
- Measurement 2 ([4]; listed as 1 mM NaPO4): 128 μS/cm
- Measurement 3 ([4]; listed as 1 mM NaPO4): 136 μS/cm
- Average/Std. Deviation ([4]; listed as 10 mM NaPO4): 1.44 +/− 0.04 mS/cm
- Measurement 1 ([4]; listed as 10 mM NaPO4): 1.40 mS/cm
- Measurement 2 ([4]; listed as 10 mM NaPO4): 1.44 mS/cm
- Measurement 3 ([4]; listed as 10 mM NaPO4): 1.48 mS/cm
- Average/Std. Deviation ([4]; listed as 20 mM NaPO4): 2.90 +/− 0.11 mS/cm
- Measurement 1 ([4]; listed as 20 mM NaPO4): 2.90 mS/cm
- Measurement 2 ([4]; listed as 20 mM NaPO4): 2.79 mS/cm
- Measurement 3 ([4]; listed as 20 mM NaPO4): 3.00 mS/cm
- transport (DNA): fair transport

- conductivity [6]: 4.5 μS
- PH [6]: 4.6
Compound: NCCS(=O)(=O)O [Taurine]
- transport (DNA): excellent transport

- conductivity ([3]; 50 mM): 74.5 +/− 5.5
- pH ([3]; 50 mM): 8.07
Compound: NCCC(=O)N[C@@H](Cc1cnc[nH]1)C(=O)O [carnosine]
- pl [1]: 8.17
- hybridization efficiency [2]: 26.1
- transported [2]: 129 +/− 45
- specific hybridization [2]: 33.7 +/− 12.1 attomol

Compound: Cc1cc(C)nc(C)c1 [collidine]
- hybridization efficiency [2]: 3.7
- transported [2]: 382 +/− 63
- specific hybridization [2]: 14.1 +/− 4.6 attomol

Compound: N[C@@H](CCC(=O)O)C(=O)O [glutamic acid]
- pI [1]: 3.22

- conductivity ([3]; 50 mM): 2.5 +/− 0.2
- pH ([3]; 50 mM): 6.01
- conductivity ([3]; 250 mM): 7.8 +/− 0.5
- pH ([3]; 250 mM): 6.11
Compound: NCC(=O)O [glycine]
- pl [1]: 5.97
- support of sequence specific electronic hybridization [2]: neither GABA, b-alanine, nor glycine was capable of supporting sequence specific hybridization

- conductivity ([3]; 50 mM): 17.6 +/− 1.6
- pH ([3]; 50 mM): 9.08
- pH above the surface of the permeation layer [9]: > 5
Compound: c1c[nH]cn1 [imidazole]
- hybridization efficiency [2]: 4.0
- transported [2]: 528 +/− 63
- specific hybridization [2]: 21.2 +/− 6.6 attomol

Compound: c1ccncc1 [pyridine]
- transported [2]: 764 +/− 66
- specific hybridization [2]: 12.8 +/− 4.2 attomol
- conductivity ([3]; 50 mM): 5.0 +/− 0.8
- pH ([3]; 50 mM): 8.17

- conductivity [6]: 10.0 μS
- PH [6]: 7.3
- conductivity ([3]; 50 mM): 3.6 +/− 0.6
- pH ([3]; 50 mM): 6.71
Compound: NCCC(=O)O [β-Alanine]
- pK1 ([1]; Table 2): pK1 - 3.6
- pK2 ([1]; Table 2): pK2 - 10.2
- pl [1]: 6.90
- support of sequence specific electronic hybridization [2]: neither GABA, b-alanine, nor glycine was capable of supporting sequence specific hybridization
- transport (DNA): excellent transport

Compound: water [Milli-Q water]
- checkerboard addressing and concentration of fluorescent DNA probe [5]: Rapid (6 second) checkerboard addressing and concentration of the btr-RCA5 fluorescent DNA probe was demonstrated

— patent publication US8114589B2, “Self-addressable self-assembling microelectronic integrated systems, component devices, mechanisms, methods, and procedures for molecular biological analysis and diagnostics” (Gamida For Life B.V., priority 1996, dated 2012)
